Results from patent US20050043262A1, “Novel specific inhibitor of the cyclin kinase inhibitor p21Waf1/Cip1 and methods of using the inhibitor” (priority 2000, published 2005).

Legend:
MCF7 cells = assay: [3H]thymidine incorporation in MCF7 cells; assay type: cell-based, human; details: 200 nM, serum 24 hours
Protocol: Cell Culture and DNA Synthesis: T47D (ductal carcinoma) and MCF7 (adenocarcinoma) human breast cancer cell lines were obtained from the American Type Culture Collection. All cell lines were maintained according to vendors' recommendations. The cells were growth arrested by placing them in serum-free quiescence media and exposed to 10% serum-containing media as indicated. [^3H]Thymidine incorporation was assessed as described previously (Weiss, R. H., and Nuccitelli, R., J. Biol. Chem., 267: 5608-5613, 1992).
Apoptotic cells will not incorporate thymidine into DNA during S phase, but [^3H]thymidine incorporation experiments will not distinguish between G1→S arrest and apoptosis. Serum-starved cells were transfected with 200 nM antisense p21 and control ODN, stimulated with serum-containing media, and examined for their ability to incorporate [^3H]thymidine into DNA. […] Antisense p21 attenuates [^3H]thymidine incorporation. MCF7 and T47D cells were grown to confluence, serum starved for 24 hours, and lipofected with antisense p21 (AS) or control (SC) ODN at the concentrations indicated (in nM). […] Serum was added for 24 hours, and the cells were incubated with [^3H]thymidine for the last 6 hours. DNA synthesis was assessed by [^3H]thymidine incorporation and is expressed as mean +SD of 3 wells/data point. *, P <0.05 compared with antisense p21 ODN transfection. […]

T47D cells = assay: Nuclear morphology (Hoechst 33258) in T47D cells; assay type: cell-based, human; details: serum stimulated 24 hours after lipofection
Protocol: Evaluation of Nuclear Morphology: Cells were seeded in 6-well culture dishes and treated with ODNs as described. The cells were then immersed in methanol for at least 10 min. Cells were stained in 1 μg/ml Hoechst 33258 in water with 1% nonfat dry milk. After staining for 8-10 min, the cells were rinsed in water and dried completely. Nuclear morphology was visually evaluated by fluorescence microscopy.
Apoptosis is the end result of an elaborate cascade of molecular events that ultimately result in programmed cell death; thus, a variety of tests are generally used to determine whether apoptosis is occurring. The methods to study apoptosis were employed: (a) assessment of nuclear morphology; (b) PARP cleavage; and (c) caspase-3 cleavage. Serum-starved cells were transfected with antisense p21 ODN or the control ODN, fixed, stained with Hoechst 33258, and examined under UV light. MCF7 and T47D cells were grown to confluence, serum starved for 24 hours, and lipofected with antisense p21 or control ODN. The cells were subsequently serum stimulated for another 24 hours, fixed, stained with Hoechst 33258, and examined under UV light at X400.

α-actin = assay: alpha-actin level by Western blot in A431 cells; assay type: cell-based, human; details: 200 nM oligodeoxynucleotide
Protocol: (§1) Western blots: Cells were grown to confluence in 6 cm culture dishes and serum deprived. After transfection and or treatment with appropriate agonist, the cells were washed with phosphate-buffered saline and lysed in lysis buffer and the supernatant was Western blotted as described (Weiss and Nuccitelli, 1992 J. Biol. Chem., 267, p. 5608-5613).
(§2) PMA is a potent inducer of p21^Waf1/Cip1 in a variety of different cell lines (Huang et al., 1995 Proc. Natl. Acad. Sci. US.A., 92, p. 4793-4797; Michieli et al., 1994 Cancer Res., 54, p. 3391-3395) and was employed to examine p21^Waf1/Cip1 levels after antisense transfection and confirm efficacy of translation to attenuate p21^Waf1/Cip1 levels. A431 cells were transfected with 200 nM antisense p21^Waf1/Cip1 (SEQ. ID NO.:1) or sense p21^Waf1/Cip1 oligodeoxynucleotide (SEQ. ID NO.:2). After overnight incubation in serum-free medium, the cells were stimulated with PMA (100 ng/ml) for the times indicated, lysed, and the lysates were Western blotted with p21^Waf1/Cip1 or α-actin antibody.

bovine VSM cells = assay: PDGF-BB-stimulated DNA synthesis in bovine VSM cells; assay type: cell-based; details: bovine VSM cell line, various concentrations
Excerpt: Cell culture, DNA synthesis, and proliferation assays: Cultures of both A10 and A7r5 rat aortic VSM cells were obtained from American Type Culture Collection (Rockville Md.). Bovine aortic smooth muscle cells were supplied by Martha O'Donnell (O'Donnell and Owen, 1986 Proc Natl. Acad. Sci.US.A., 83, p. 6132-6136). All of the cell lines were maintained as described (Weiss et al., 1998 Am. J. Physiol., 274, p. C1521-C1529) and were used between passages 15 and 25. The cells were growth-arrested by placing them in serum-free quiescence medium, exposed to growth factors as indicated, and [^3H]thymidine incorporation assessed as previously described (Weiss and Nuccitelli, 1992a J. Biol. Chem., 267, p. 5608-5613). Cell proliferation was assessed by counting of adherent cells on 4 representative fields under 100× magnification in each of 3 wells per experimental condition.
Antisense techniques were employed to examine the dependence of G1-phase progression on p21^Waf1/Cip1 in the VSM cell lines (Crooke, 1993 Antisense research and applications. Boca Raton, CRC.). […] DNA synthesis was assessed by [^3H]-thymidine incorporation and is expressed as mean ± s.e.m. of three wells per data point. […] After 18 hours of PDGF incubation, the cells were counted by examining representative fields at 100× magnification. The average number of cells in 4 random fields in each well was determined.

p21^Waf1/Cip1 = assay: PMA-induced p21 level by Western blot in A431 cells; assay type: cell-based, human; details: 200 nM oligodeoxynucleotide, PMA 100 ng/ml up to 6 hours
Protocol: as §1, §2

| Substance | [3H]thymidine incorporation (DNA incorporation) (MCF7 cells) | nuclear morphology (T47D cells) | levels of α-actin (α-actin) | PDGF-stimulated DNA synthesis (bovine VSM cells) | PMA-induced p21^Waf1/Cip1 levels (p21^Waf1/Cip1) |
| --- | --- | --- | --- | --- | --- |
| 5′-ATC-CCC-AGC-CGG-TTC-TGA-CAT-3′ (antisense ATCCCCAGCCGGTTCTGACAT; listed as DNA, chemistry not fully specified) [antisense p21 ODN] | significant attenuation | nuclear morphological changes consistent with apoptosis | – | – | – |
| 5′-GACATCACCAGGATCGGACAT-3′ | – | – | not altered | a similar effect | significant attenuation |
